In patent US20240140895A1, “NOVEL AROMATIC MOLECULES” (XENIOPRO GmbH, priority 2018, published 2024):

Legend:
Format in all cases: cell-based
[1] = tested on: HH cells (human cutaneous T-cell lymphoma cells); test: Proliferation assay (alamarBlue) with HH cells; details: Table 34, compound at 20 μM, read-out: Activity Range (AVEw, weighted arithmetic mean of normalized fluorescence intensity, DMSO = 1.0)
Text: (§1) The antiproliferative activities of compounds falling under formula (Ia), (Tb) and (Ic), respectively, were investigated on cells or cell lines originating from a disorder of the haematopoietic system, including the myeloid cell compartment and the lymphoid cell compartment (T-cells and B-cells), the neuroendocrine system, the cervix, the breast, the ovaries, the lung, the gastrointestinal tract, and the mucosal epithelium, as well as from the skin epithelium and from the muscle. To this end, HL-60 cells, NB-4 cells, HH cells, RPMI-8402 cells, TANOUE cells, TT cells, HeLa cells, MDA-MB-231 cells, FU-OV-1 cells, LOU-NH91 cells, 23132/87 cells, CAL-27 cells, BHY cells, SCC-25 cells, A-431 cells, human primary epidermal keratinocytes (HPEK), and C2C12 cells were seeded into 96-well plates suitable for fluorescence assays (CORNING #3598) at following initial cell numbers: 1000 cells per well for HL-60; 1000 cells per well for NB-4; 5000 cells per well for HH; 5000 cells per well for RPMI-8402; 1500 cells per well for TANOUE; 9000 cells per well for TT; 2000 cells per well for HeLa; 3000 cells per well for MDA-MB-231; 3000 cells per well for FU-OV-1; 4000 cells per well for LOU-NH91; 2000 cells per well for 23132/87; 2000 cells per well for CAL-27; 1500 cells per well for BHY; 1500 cells per well for SCC-25; 700 cells per well for A-431; 1000 cells per well for HPEK; 500 cells per well for C2-C12. The cells were treated with compounds at indicated final concentrations (diluted from the 1000× stock-solutions in DMSO to a final DMSO concentration of 0.1% v/v in H2O (Water For Injection, WFI, Fisherscientific #10378939)) or with the empty carrier DMSO at 0.1% v/v as control for 5 days. At day 5 after starting the treatments the cells were subjected to the alamarBlue® Proliferation Assay (Bio-Rad Serotec GmbH, BUF012B) according to the protocol of the manufacturer. The readout was taken with a multi-well plate-reader in the fluorescence mode with applying a filter for excitation at 560 nm (band width 10 nm) and for emission at 590 nm (band width 10 nm). Control treatments for growth inhibition with commercial compounds such as Methotrexate (MTREX) and Resveratrol (RES) were included on every plate. Some of the test compounds of the present invention were obtained and applied as their salts. According cases are indicated in the column “Specification” in Table 30 to Table 62 and by their sum formula in Table 63.
(§2) The assays were performed in duplicate or more replicates of independent single experiments each containing a six-fold replicate for every condition. For every individual plate, the measured fluorescence intensity values of the conditions with compound treatment were normalized against the corresponding equally weighted arithmetic mean of the fluorescence intensity values of the six DMSO treated control wells in order to obtain the relative values to a baseline level of 1.0.
(§3) Two independent outlier analyses were performed according to the methods by Peirce and Chauvenet (Ross, Journal of Engineering Technology 2003, 1-12). Outliers confirmed by at least one of the methods were excluded from the calculations but not more than one value out of six per compound within a single experiment. The weighted arithmetic mean (here abbreviated as AVEw) for each compound was calculated from the normalized values over all independent replicates of the single experiments comprising the six replicates each. The corresponding standard deviation for the weighted arithmetic mean was calculated according to the method described by Bronstein et al. (Bronstein, Semendjajew, Musiol, Muhlig, Taschenbuch der Mathematik, 5th edition 2001 (German), publisher: Verlag Harri Deutsch, Frankfurt am Main and Thun) and was combined with the Gauβ′ error propagation associated with the performed calculation for the normalization. The resulting standard deviation is herein referred to as “combined standard deviation”. […]

[2] = tested on: LOU-NH91 cells (human lung squamous cell carcinoma cells); test: Proliferation assay (alamarBlue) with LOU-NH91 cells
Text: (§4) The antiproliferative activities of compounds falling under formula (Ia), (Tb) and (Ic), respectively, were investigated on cells or cell lines originating from a disorder of the haematopoietic system, including the myeloid cell compartment and the lymphoid cell compartment (T-cells and B-cells), the neuroendocrine system, the cervix, the breast, the ovaries, the lung, the gastrointestinal tract, and the mucosal epithelium, as well as from the skin epithelium and from the muscle. To this end, HL-60 cells, NB-4 cells, HH cells, RPMI-8402 cells, TANOUE cells, TT cells, HeLa cells, MDA-MB-231 cells, FU-OV-1 cells, LOU-NH91 cells, 23132/87 cells, CAL-27 cells, BHY cells, SCC-25 cells, A-431 cells, human primary epidermal keratinocytes (HPEK), and C2C12 cells were seeded into 96-well plates suitable for fluorescence assays (CORNING #3598) at following initial cell numbers: 1000 cells per well for HL-60; 1000 cells per well for NB-4; 5000 cells per well for HH; 5000 cells per well for RPMI-8402; 1500 cells per well for TANOUE; 9000 cells per well for TT; 2000 cells per well for HeLa; 3000 cells per well for MDA-MB-231; 3000 cells per well for FU-OV-1; 4000 cells per well for LOU-NH91; 2000 cells per well for 23132/87; 2000 cells per well for CAL-27; 1500 cells per well for BHY; 1500 cells per well for SCC-25; 700 cells per well for A-431; 1000 cells per well for HPEK; 500 cells per well for C2-C12. […] The readout was taken with a multi-well plate-reader in the fluorescence mode with applying a filter for excitation at 560 nm (band width 10 nm) and for emission at 590 nm (band width 10 nm). […]
as §2, with “1.0. […]” for “1.0.”

[3] = tested on: C2C12 cells (murine myoblast cells); test: Proliferation assay (alamarBlue) with C2C12 cells; details: Mus musculus, compound at 20 μM, read-out: Activity Range: weighted arithmetic mean (AVEw) of normalized fluorescence intensity, relative to DMSO basis level 1.0
Text: as §1, §2, §3

[4] = tested on: NB-4 cells (human acute promyelocytic leukemia cells); test: Proliferation assay (alamarBlue) with NB-4 cells
Text: as §1, §2, §3

[5] = tested on: RPMI-8402 cells (human T cell acute lymphoblastic leukemia cells); test: Proliferation assay (alamarBlue) with RPMI-8402 cells
Text: as §1, §2, §3

[6] = tested on: A-431 cells (human epidermoid squamous cell carcinoma cells); test: Proliferation assay (alamarBlue) with A-431 cells
Text: as §1, §2, §3

[7] = tested on: BHY cells (human oral squamous cell carcinoma cells); test: Proliferation assay (alamarBlue) with BHY cells; details: read-out: Activity Range: weighted arithmetic mean (AVEw) of normalized fluorescence intensity relative to DMSO basis level 1.0
Text: as §1, §2, §3

[8] = tested on: TT cells (human medullary thyroid carcinoma cells); test: Proliferation assay (alamarBlue) with TT cells
Text: as §4
as §2, with “1.0. […]” for “1.0.”

[9] = tested on: HL-60 cells (human acute myeloid leukemia cells); test: Proliferation assay (alamarBlue) with HL-60 cells
Text: as §1, §2, §3

[10] = tested on: MDA-MB-231 cells (human breast carcinoma cells); test: Proliferation assay (alamarBlue) with MDA-MB-231 cells
Text: as §1, §2, §3

[11] = tested on: FU-OV-1 cells (human ovarian carcinoma cells); test: Proliferation assay (alamarBlue) with FU-OV-1 cells
Text: as §4
as §2, with “1.0. […]” for “1.0.”

[12] = tested on: 23132/87 cells (human gastric adenocarcinoma cells); test: Proliferation assay (alamarBlue) with 23132/87 cells; details: read-out: Activity Range: weighted arithmetic mean (AVEw) of normalized fluorescence intensity relative to DMSO basis level 1.0
Text: as §1, §2, §3

[13] = tested on: TANOUE cells (human B cell leukemia cells); test: Proliferation assay (alamarBlue) with TANOUE cells
Text: as §1, §2, §3

[14] = tested on: CAL-27 cells (human tongue squamous cell carcinoma cells); test: Proliferation assay (alamarBlue) with CAL-27 cells; details: read-out: Activity Range: weighted arithmetic mean (AVEw) of normalized fluorescence intensity relative to DMSO basis level 1.0
Text: as §1, §2, §3

[15] = Homo sapiens, read-out: Activity Range: weighted arithmetic mean (AVEw) of normalized fluorescence intensity relative to DMSO basis level 1.0

Structure (SMILES): Oc1ccc(C=Cc2cc(O)cc(O)c2)cc1 [RES, resveratrol, reference compound]
- activity at 20 µM [1]: 60 ± 10%
- Activity Range: weighted arithmetic mean (AVEw) of normalized fluorescence intensity relative to DMSO basis level 1.0 ([2]; 20 μM): 0.9 ± 0.1
- Activity Range: weighted arithmetic mean (AVEw) of normalized fluorescence intensity relative to DMSO basis level 1.0 ([2]; control at 40 μM): 0.7 ± 0.0
- activity at 20 µM [3]: 80%
- activity at 20 µM ([4]; Homo sapiens, Table 32, compound at 20 μM, read-out: Activity Range (AVEw, weighted arithmetic mean of normalized fluorescence intensity, DMSO = 1.0)): 10%
- Activity Range (AVEw, weighted arithmetic mean of normalized fluorescence intensity, DMSO = 1.0) ([4]; Table 33, compound at 20 μM): 0.1 ± 0.0
- Activity Range: weighted arithmetic mean (AVEw) of normalized fluorescence intensity relative to DMSO basis level 1.0 ([5]; 20 μM): 0.6 ± 0.0
- activity at 20 µM [5, 15]: 60%
- activity at 20 µM ([6]; Homo sapiens, 20 μM, read-out: Activity Range: weighted arithmetic mean (AVEw) of normalized fluorescence intensity relative to DMSO basis level 1.0): 60%
- Activity Range: weighted arithmetic mean (AVEw) of normalized fluorescence intensity relative to DMSO basis level 1.0 ([6]; compound at 20 μM): 0.6 ± 0.0
- Activity Range: weighted arithmetic mean (AVEw) of normalized fluorescence intensity relative to DMSO basis level 1.0 ([6]; control at 40 μM): 0.2 ± 0.0
- activity at 20 µM [7]: 50 ± 10%
- Activity Range: weighted arithmetic mean (AVEw) of normalized fluorescence intensity relative to DMSO basis level 1.0 ([8]; compound at 20 μM): 0.9 ± 0.0
- Activity Range: weighted arithmetic mean (AVEw) of normalized fluorescence intensity relative to DMSO basis level 1.0 ([8]; control at 40 μM): 0.7 ± 0.0
- activity at 20 µM ([9]; Homo sapiens, Table 30, compound at 20 μM, read-out: Activity Range (AVEw, weighted arithmetic mean of normalized fluorescence intensity, DMSO = 1.0)): 40 ± 10%
- Activity Range (AVEw, weighted arithmetic mean of normalized fluorescence intensity, DMSO = 1.0) ([9]; Table 31, compound at 20 μM): 0.4 ± 0.1
- Activity Range: weighted arithmetic mean (AVEw) of normalized fluorescence intensity relative to DMSO basis level 1.0 ([10]; 20 μM): 0.6 ± 0.0
- activity at 20 µM [10, 15]: 60%
- Activity Range: weighted arithmetic mean (AVEw) of normalized fluorescence intensity relative to DMSO basis level 1.0 ([11]; 20 μM): 0.7 ± 0.0
- Activity Range: weighted arithmetic mean (AVEw) of normalized fluorescence intensity relative to DMSO basis level 1.0 ([11]; control at 40 μM): 0.4 ± 0.0
- activity at 20 µM [12]: 50 ± 10%
- Activity Range: weighted arithmetic mean (AVEw) of normalized fluorescence intensity relative to DMSO basis level 1.0 ([13]; 20 μM): 0.1 ± 0.0
- activity at 20 µM ([13]; Homo sapiens, B-cell, read-out: Activity Range: weighted arithmetic mean (AVEw) of normalized fluorescence intensity relative to DMSO basis level 1.0): 10%
- activity at 20 µM [14]: 80 ± 10%
